Experimental data as given in patent US20080009418A1, “Selective Inhibitors” (Alchemia LTD., priority 2004, published 2008).

Assays:
Human μ-opioid (MOP) = target: T1, Human μ-opioid (MOP) (Homo sapiens, UniProt P35372); experiment: Radioligand binding, human μ-opioid (MOP) membranes, FlashPlate, [3H]-Naloxone; conditions: compound at 10 μM, [3H]-Naloxone; for A7: inhibition of radioligand binding: human MOP membranes
T1 construct: purchased Perkin Elmer Biosignal
Procedure, shortened: (§1)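 Cloned human receptor membranes were coated onto FlashPlate wells and incubated with radioligand and compound (added from a 0.5 mM DMSO daughter plate) for 1 hour at room temperature in the dark. Scintillation counting gave percent inhibition, with DMSO defining total and reference ligand defining non-specific binding.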

Human Melanocortin (MC4) = target: T2, Human Melanocortin (MC4) (Homo sapiens, UniProt P32245); experiment: Radioligand binding, human melanocortin MC4 membranes, FlashPlate, [125I]-NDP-αMSH; conditions: compound at 10 μM, [125I]-NDP-αMSH; for A4: inhibition of radioligand binding: human MC4 membranes, 10 µM
T2 construct: purchased Perkin Elmer Biosignal
T2 sequence (P32245 whole entry): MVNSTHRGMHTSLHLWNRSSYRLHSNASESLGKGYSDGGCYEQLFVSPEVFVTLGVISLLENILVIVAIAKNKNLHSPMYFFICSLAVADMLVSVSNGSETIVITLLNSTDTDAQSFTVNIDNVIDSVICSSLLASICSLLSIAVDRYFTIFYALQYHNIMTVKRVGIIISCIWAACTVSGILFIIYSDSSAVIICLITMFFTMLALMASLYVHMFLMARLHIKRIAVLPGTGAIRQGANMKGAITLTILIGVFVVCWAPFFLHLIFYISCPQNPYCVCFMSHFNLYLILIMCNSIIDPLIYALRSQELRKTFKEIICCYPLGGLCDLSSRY
Procedure, shortened: as §1

Human Melanocortin (MC3) = target: T3, Human Melanocortin (MC3) (Homo sapiens, UniProt P41968); experiment: Radioligand binding, human melanocortin MC3 membranes, FlashPlate, [125I]-NDP-αMSH; conditions: compound at 10 μM, [125I]-NDP-αMSH; for A3: inhibition of radioligand binding: human MC3 membranes
T3 construct: purchased Perkin Elmer Biosignal
T3 sequence (P41968 whole entry): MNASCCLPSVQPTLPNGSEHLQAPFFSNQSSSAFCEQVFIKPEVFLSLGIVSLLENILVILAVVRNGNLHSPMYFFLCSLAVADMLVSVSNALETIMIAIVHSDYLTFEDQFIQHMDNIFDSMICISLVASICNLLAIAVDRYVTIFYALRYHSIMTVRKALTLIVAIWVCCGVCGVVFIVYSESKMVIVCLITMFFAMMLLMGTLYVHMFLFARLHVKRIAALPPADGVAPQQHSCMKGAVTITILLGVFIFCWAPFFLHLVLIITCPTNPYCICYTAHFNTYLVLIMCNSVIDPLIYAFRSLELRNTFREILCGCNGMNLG
Procedure, shortened: as §1

[1] = target: T4, Human melanin-concentrating hormone (MCH1) (Homo sapiens, UniProt Q99705); experiment: Radioligand binding, human melanin-concentrating hormone MCH1 membranes, FlashPlate, [125I]-S36057; conditions: compound at 10 μM; for A6: inhibition of radioligand binding: [125I]-S36057, human MCH1 membranes
T4 construct: purchased Perkin Elmer Biosignal
T4 sequence (Q99705 whole entry): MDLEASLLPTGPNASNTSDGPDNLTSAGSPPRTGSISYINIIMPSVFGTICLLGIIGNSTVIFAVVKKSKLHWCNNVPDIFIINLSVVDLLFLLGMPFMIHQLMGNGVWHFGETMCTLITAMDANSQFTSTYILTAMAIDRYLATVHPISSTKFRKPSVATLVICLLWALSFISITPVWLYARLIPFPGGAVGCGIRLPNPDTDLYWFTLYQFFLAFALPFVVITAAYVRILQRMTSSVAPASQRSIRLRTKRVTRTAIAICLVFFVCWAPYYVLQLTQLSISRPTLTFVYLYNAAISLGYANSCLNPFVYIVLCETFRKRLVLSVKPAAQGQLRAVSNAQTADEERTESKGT
Procedure, shortened: as §1

Human opioid (ORL1) = target: T5, Human opioid (ORL1) (Homo sapiens, UniProt P41146); experiment: Radioligand binding, human opioid ORL1 membranes, FlashPlate, [125I]-Nociceptin; conditions: compound at 10 μM, [125I]-Nociceptin; for A10: inhibition of radioligand binding: human ORL1 membranes, 10 µM
T5 construct: purchased Perkin Elmer Biosignal
T5 sequence (P41146 whole entry): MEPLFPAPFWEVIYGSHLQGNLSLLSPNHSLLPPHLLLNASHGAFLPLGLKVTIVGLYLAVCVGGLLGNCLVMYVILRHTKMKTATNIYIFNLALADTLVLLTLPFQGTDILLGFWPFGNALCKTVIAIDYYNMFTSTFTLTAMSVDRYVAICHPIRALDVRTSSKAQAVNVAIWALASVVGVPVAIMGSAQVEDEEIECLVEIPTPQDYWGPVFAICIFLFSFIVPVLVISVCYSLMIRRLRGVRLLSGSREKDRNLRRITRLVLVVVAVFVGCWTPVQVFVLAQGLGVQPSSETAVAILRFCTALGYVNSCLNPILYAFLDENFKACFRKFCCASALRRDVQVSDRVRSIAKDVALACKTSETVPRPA
Procedure, shortened: as §1

Human δ-opioid (DOP) = target: T6, Human δ-opioid (DOP) (Homo sapiens, UniProt P41143); experiment: Radioligand binding, human δ-opioid (DOP) membranes, FlashPlate, [3H]-Bremazocine; conditions: compound at 10 μM, [3H]-Bremazocine; for A1: inhibition of radioligand binding: human DOP membranes
T6 construct: purchased Perkin Elmer Biosignal
T6 sequence (P41143 whole entry): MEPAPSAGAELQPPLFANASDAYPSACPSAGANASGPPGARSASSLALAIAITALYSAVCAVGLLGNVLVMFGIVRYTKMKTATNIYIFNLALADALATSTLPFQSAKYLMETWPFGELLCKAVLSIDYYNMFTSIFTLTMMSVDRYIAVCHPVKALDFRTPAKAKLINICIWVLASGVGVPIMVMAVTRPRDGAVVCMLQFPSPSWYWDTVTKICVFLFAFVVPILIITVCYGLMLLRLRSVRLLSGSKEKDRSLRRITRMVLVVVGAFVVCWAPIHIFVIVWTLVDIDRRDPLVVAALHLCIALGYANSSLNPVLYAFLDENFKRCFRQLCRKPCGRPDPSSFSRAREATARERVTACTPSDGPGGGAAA
Procedure, shortened: as §1

[2] = target: T7, Human neuropeptide Y (NPY-Y1) (Homo sapiens, UniProt P25929); experiment: Radioligand binding, human neuropeptide Y NPY-Y1 membranes, FlashPlate, [125I]-PYY; conditions: compound at 10 μM, [125I]-PYY; for A9: inhibition of radioligand binding: human NPY-Y1 membranes
T7 construct: purchased Perkin Elmer Biosignal
T7 sequence (P25929 1-384): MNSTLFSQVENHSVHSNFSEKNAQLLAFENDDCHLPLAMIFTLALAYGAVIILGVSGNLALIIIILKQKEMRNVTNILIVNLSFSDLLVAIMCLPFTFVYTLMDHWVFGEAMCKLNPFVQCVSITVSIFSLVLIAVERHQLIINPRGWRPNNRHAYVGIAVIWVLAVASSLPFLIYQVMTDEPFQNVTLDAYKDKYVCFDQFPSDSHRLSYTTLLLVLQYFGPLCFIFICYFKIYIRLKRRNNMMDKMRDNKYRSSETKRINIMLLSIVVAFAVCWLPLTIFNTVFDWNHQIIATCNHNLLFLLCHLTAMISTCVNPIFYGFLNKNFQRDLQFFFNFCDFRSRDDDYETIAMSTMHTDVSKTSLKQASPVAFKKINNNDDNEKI
Procedure, shortened: as §1

Human neurokinin (NK1) = target: T8, Human neurokinin (NK1) (Homo sapiens, UniProt P25103); experiment: Radioligand binding, human neurokinin NK1 membranes, filtration, [125I]-Substance P; conditions: compound at 10 μM, [125I]-Substance P; for A8: inhibition of radioligand binding: human NK1 membranes
T8 construct: purchased Perkin Elmer Biosignal
T8 sequence (P25103 whole entry): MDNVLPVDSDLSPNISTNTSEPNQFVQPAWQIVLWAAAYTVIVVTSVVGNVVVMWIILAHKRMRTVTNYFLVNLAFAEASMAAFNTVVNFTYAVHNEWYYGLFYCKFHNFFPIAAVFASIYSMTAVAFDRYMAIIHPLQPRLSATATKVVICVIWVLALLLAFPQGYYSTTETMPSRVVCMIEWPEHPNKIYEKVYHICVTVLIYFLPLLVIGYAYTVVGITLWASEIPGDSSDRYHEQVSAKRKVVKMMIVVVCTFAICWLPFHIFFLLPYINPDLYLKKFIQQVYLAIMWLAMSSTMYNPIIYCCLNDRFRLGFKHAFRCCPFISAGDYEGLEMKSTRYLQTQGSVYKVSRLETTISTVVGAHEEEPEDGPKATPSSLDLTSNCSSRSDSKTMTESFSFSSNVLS
Procedure, shortened: (§2)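 Percent inhibition of radioligand binding measured on recombinant human membranes: NK1 with [125I]-Substance P, KOP with [3H]-Diprenorphine. Incubation 1 h at room temperature, then harvest onto 0.3% PEI-soaked filters, cold Tris-HCl pH 7.4 washes and scintillation counting; non-specific binding from reference ligand wells.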

Human melanocortin (MC5) = target: T9, Human melanocortin (MC5) (Homo sapiens, UniProt P33032); experiment: Radioligand binding, human melanocortin MC5 membranes, FlashPlate, [125I]-NDP-αMSH; conditions: compound at 10 μM, [125I]-NDP-αMSH; for A5: inhibition of radioligand binding: human MC5 membranes
T9 construct: purchased Perkin Elmer Biosignal
T9 sequence (P33032 whole entry): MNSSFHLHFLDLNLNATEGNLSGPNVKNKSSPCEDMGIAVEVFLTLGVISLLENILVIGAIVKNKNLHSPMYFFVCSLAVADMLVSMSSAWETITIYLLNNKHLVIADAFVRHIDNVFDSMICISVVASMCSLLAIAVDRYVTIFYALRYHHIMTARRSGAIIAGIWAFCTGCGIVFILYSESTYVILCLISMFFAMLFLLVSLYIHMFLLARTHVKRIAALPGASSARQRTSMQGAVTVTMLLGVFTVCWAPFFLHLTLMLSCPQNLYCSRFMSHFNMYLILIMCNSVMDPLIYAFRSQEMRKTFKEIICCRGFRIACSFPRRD
Procedure, shortened: as §1

Human κ-Opioid (KOP) = target: T10, Human κ-Opioid (KOP) (Homo sapiens, UniProt P41145); experiment: Radioligand binding, human κ-opioid (KOP) membranes, filtration, [3H]-Diprenorphine; conditions: compound at 10 μM, [3H]-Diprenorphine; for A2: inhibition of radioligand binding: human KOP membranes
T10 construct: purchased Perkin Elmer Biosignal
T10 sequence (P41145 whole entry): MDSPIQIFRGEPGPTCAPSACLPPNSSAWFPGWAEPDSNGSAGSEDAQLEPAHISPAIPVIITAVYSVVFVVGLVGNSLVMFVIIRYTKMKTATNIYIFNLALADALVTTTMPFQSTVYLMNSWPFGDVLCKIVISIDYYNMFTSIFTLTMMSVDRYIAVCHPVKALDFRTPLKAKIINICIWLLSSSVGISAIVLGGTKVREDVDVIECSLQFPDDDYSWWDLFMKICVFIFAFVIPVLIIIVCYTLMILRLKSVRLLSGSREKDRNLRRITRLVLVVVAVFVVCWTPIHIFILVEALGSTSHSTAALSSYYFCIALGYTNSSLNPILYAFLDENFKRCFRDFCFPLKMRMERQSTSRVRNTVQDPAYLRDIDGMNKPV
Procedure, shortened: as §2

Mouse urotensin (mUR2) = target: T11, Mouse urotensin (mUR2) (Mus musculus, UniProt Q8VIH9); experiment: Radioligand binding, mouse urotensin mUR2 membranes, FlashPlate, [125I]-Urotensin II; conditions: compound at 10 μM, [125I]-Urotensin II; for A11: inhibition of radioligand binding: mouse mUR2 membranes
T11 construct: purchased Perkin Elmer Biosignal
T11 sequence (Q8VIH9 1-385): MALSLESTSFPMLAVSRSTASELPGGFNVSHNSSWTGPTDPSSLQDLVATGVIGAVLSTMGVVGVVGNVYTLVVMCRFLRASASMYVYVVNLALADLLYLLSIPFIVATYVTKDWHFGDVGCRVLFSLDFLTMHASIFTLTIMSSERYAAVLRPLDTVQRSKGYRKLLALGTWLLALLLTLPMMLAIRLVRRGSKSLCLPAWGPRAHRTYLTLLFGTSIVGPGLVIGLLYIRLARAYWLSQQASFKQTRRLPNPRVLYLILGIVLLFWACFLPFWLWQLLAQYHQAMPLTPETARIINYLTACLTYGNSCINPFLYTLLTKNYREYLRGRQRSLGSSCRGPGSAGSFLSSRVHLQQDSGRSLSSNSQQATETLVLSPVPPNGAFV
Procedure, shortened: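 Cloned mouse urotensin (mUR2) receptor membranes from Perkin Elmer Biosignal were immobilized in FlashPlate microplates using a proprietary coating. Each well got 19.5 μl buffer, then 0.5 μl of DMSO, reference ligand, or compound. Adding 5 μl of [125I]-Urotensin II, diluted to 5× final concentration in binding buffer, started binding. Plates were sealed with TopSeal-A and incubated 1 hour at room temperature in the dark. Wells were counted for 30 seconds each on a TopCount after a 60-second delay, and percentage inhibition was calculated.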

T1 sequence (P35372 whole entry): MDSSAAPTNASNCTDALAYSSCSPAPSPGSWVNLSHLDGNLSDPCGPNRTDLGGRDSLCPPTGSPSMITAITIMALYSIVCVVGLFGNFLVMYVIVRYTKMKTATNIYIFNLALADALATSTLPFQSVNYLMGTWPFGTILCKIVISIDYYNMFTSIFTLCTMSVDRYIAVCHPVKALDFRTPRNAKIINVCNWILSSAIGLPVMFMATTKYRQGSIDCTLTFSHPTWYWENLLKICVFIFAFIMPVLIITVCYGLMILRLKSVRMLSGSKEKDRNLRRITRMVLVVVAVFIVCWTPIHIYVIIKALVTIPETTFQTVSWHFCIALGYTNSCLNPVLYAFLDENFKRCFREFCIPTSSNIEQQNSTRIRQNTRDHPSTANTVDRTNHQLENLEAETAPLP

| SMILES | A7: inhibition of radioligand binding (Human μ-opioid (MOP)) | A4: inhibition of radioligand binding (Human Melanocortin (MC4)) | A3: inhibition of radioligand binding (Human Melanocortin (MC3); 10 µM) | A10: inhibition of radioligand binding (Human opioid (ORL1)) | A1: inhibition of radioligand binding (Human δ-opioid (DOP)) | A9: inhibition of radioligand binding [2] | A8: inhibition of radioligand binding (Human neurokinin (NK1)) | A5: inhibition of radioligand binding (Human melanocortin (MC5)) | A2: inhibition of radioligand binding (Human κ-Opioid (KOP)) | A11: inhibition of radioligand binding (Mouse urotensin (mUR2)) | A4: inhibition of radioligand binding, human melanocortin (MC4) (Human Melanocortin (MC4)) | A10: inhibition of radioligand binding, human opioid (ORL1) (Human opioid (ORL1)) | A1: inhibition of radioligand binding, human δ-opioid (DOP) (Human δ-opioid (DOP)) | A9: inhibition of radioligand binding, human neuropeptide Y (NPY-Y1) [2] | A8: inhibition of radioligand binding, human neurokinin (NK1) (Human neurokinin (NK1)) | A5: inhibition of radioligand binding, human melanocortin (MC5) (Human melanocortin (MC5)) | A2: inhibition of radioligand binding, human κ-opioid (KOP) (Human κ-Opioid (KOP)) | A11: inhibition of radioligand binding, mouse urotensin (mUR2) (Mouse urotensin (mUR2)) | also measured |
| --- | --- | --- | --- | --- | --- | --- | --- | --- | --- | --- | --- | --- | --- | --- | --- | --- | --- | --- | --- |
| COCC1OC(OCc2ccccc2)C(NC(=O)CCN)C(OCc2ccc(-c3ccccc3)cc2)C1O (stereo not shown) [compound 184] | – | – | – | – | – | – | – | – | – | – | – | – | – | – | – | – | – | – | A7 radioligand binding, percentage inhibition (Human μ-opioid (MOP)): − (“−” indicates less than 50% inhibition at 10 μM); A4 radioligand binding, percentage inhibition (Human Melanocortin (MC4)): − (“−” indicates less than 50% inhibition at 10 μM); A3 radioligand binding, percentage inhibition (Human Melanocortin (MC3)): − (“−” indicates less than 50% inhibition at 10 μM); A6 radioligand binding, percentage inhibition ([1]; [125I]-S36057): − (“−” indicates less than 50% inhibition at 10 μM); A10 radioligand binding, percentage inhibition (Human opioid (ORL1)): − (“−” indicates less than 50% inhibition at 10 μM); A1 radioligand binding, percentage inhibition (Human δ-opioid (DOP)): − (“−” indicates less than 50% inhibition at 10 μM); A9 radioligand binding, percentage inhibition [2]: − (“−” indicates less than 50% inhibition at 10 μM); A8 radioligand binding, percentage inhibition (Human neurokinin (NK1)): + (“+” indicates greater than 50% inhibition at 10 μM); A5 radioligand binding, percentage inhibition (Human melanocortin (MC5)): + (“+” indicates greater than 50% inhibition at 10 μM); A2 radioligand binding, percentage inhibition (Human κ-Opioid (KOP)): − (“−” indicates less than 50% inhibition at 10 μM); A11 radioligand binding, percentage inhibition (Mouse urotensin (mUR2)): − (“−” indicates less than 50% inhibition at 10 μM) |
| NCCCC(=O)NC1C(OCc2ccc3ccccc3c2)OC(COCc2ccc3ccccc3c2)C(O)C1OCc1ccccc1 (single isomer, unassigned) [compound 466] | − (“−” indicates less than 50% inhibition at 10 μM) | + (“+” indicates greater than 50% inhibition at 10 μM) | − (“−” indicates less than 50% inhibition at 10 μM) | + (“+” indicates greater than 50% inhibition at 10 μM) | − (“−” indicates less than 50% inhibition at 10 μM) | − (“−” indicates less than 50% inhibition at 10 μM) | + (“+” indicates greater than 50% inhibition at 10 μM) | + (“+” indicates greater than 50% inhibition at 10 μM) | − (“−” indicates less than 50% inhibition at 10 μM) | − (“−” indicates less than 50% inhibition at 10 μM) | – | – | – | – | – | – | – | – | A6: inhibition of radioligand binding ([1]; 10 µM): + (“+” indicates greater than 50% inhibition at 10 μM) |
| NCCCC(=O)NC1C(OCc2ccc(Cl)cc2)OC(COCc2ccc3ccccc3c2)C(O)C1OCc1ccccc1 (single isomer, unassigned) [compound 501] | – | – | – | – | – | – | – | – | – | – | + (“+” indicates greater than 50% inhibition at 10 μM) | + (“+” indicates greater than 50% inhibition at 10 μM) | − (“−” indicates less than 50% inhibition at 10 μM) | − (“−” indicates less than 50% inhibition at 10 μM) | + (“+” indicates greater than 50% inhibition at 10 μM) | + (“+” indicates greater than 50% inhibition at 10 μM) | − (“−” indicates less than 50% inhibition at 10 μM) | − (“−” indicates less than 50% inhibition at 10 μM) | A7: inhibition of radioligand binding, human μ-opioid (MOP) (Human μ-opioid (MOP); 10 µM): − (“−” indicates less than 50% inhibition at 10 μM); A3: inhibition of radioligand binding, human melanocortin (MC3) (Human Melanocortin (MC3); 10 µM): + (“+” indicates greater than 50% inhibition at 10 μM); A6: inhibition of radioligand binding, human melanin-concentrating hormone (MCH1) ([1]; [125I]-S36057, 10 µM): − (“−” indicates less than 50% inhibition at 10 μM) |
| NCCCC(=O)NC1C(OCc2ccc3ccccc3c2)OC(COCc2ccc(Cl)cc2)C(O)C1OCc1ccccc1 (stereo not shown) [compound 398] | − (“−” indicates less than 50% inhibition at 10 μM) | + (“+” indicates greater than 50% inhibition at 10 μM) | + (“+” indicates greater than 50% inhibition at 10 μM) | − (“−” indicates less than 50% inhibition at 10 μM) | − (“−” indicates less than 50% inhibition at 10 μM) | − (“−” indicates less than 50% inhibition at 10 μM) | + (“+” indicates greater than 50% inhibition at 10 μM) | + (“+” indicates greater than 50% inhibition at 10 μM) | − (“−” indicates less than 50% inhibition at 10 μM) | − (“−” indicates less than 50% inhibition at 10 μM) | – | – | – | – | – | – | – | – | A6: inhibition of radioligand binding [1]: − (“−” indicates less than 50% inhibition at 10 μM) |
| N=C(N)NCC(=O)N[C@H]1C(OCc2ccc(Cl)cc2)O[C@H](COCc2ccccc2)[C@@H](O)[C@@H]1OCc1ccc2ccccc2c1 (stereo partly shown) [compound 514] | – | – | – | – | – | – | – | – | – | – | + (“+” indicates greater than 50% inhibition at 10 μM) | + (“+” indicates greater than 50% inhibition at 10 μM) | − (“−” indicates less than 50% inhibition at 10 μM) | + (“+” indicates greater than 50% inhibition at 10 μM) | + (“+” indicates greater than 50% inhibition at 10 μM) | + (“+” indicates greater than 50% inhibition at 10 μM) | − (“−” indicates less than 50% inhibition at 10 μM) | − (“−” indicates less than 50% inhibition at 10 μM) | A7: inhibition of radioligand binding, human μ-opioid (MOP) (Human μ-opioid (MOP)): − (“−” indicates less than 50% inhibition at 10 μM); A3: inhibition of radioligand binding, human melanocortin (MC3) (Human Melanocortin (MC3)): + (“+” indicates greater than 50% inhibition at 10 μM); A6: inhibition of radioligand binding, human melanin-concentrating hormone (MCH1) ([1]; [125I]-S36057): + (“+” indicates greater than 50% inhibition at 10 μM) |
